From patent publication US20230172940A1, “METHODS OF EXTENDING LIFESPAN BY ADMINISTERING FERROPTOSIS INHIBITORS” (COLLABORATIVE MEDICINAL DEVELOPMENT, LLC, priority 2020, published 2023)
Where a name gives a salt, the structure may show the parent alone.

Tests used:
C. elegans iron-proteome = assay: Size exclusion chromatography-ICP-MS of soluble iron; assay type: in vivo, Caenorhabditis elegans; details: aged C. elegans (10 days post adulthood)
Protocol: Liquid chromatography was performed using established protocols. Briefly^o samples of aged C. elegans were lysed using a Bioruptor Next Gen (Diagenode) bath sonicator set on HIGH and cooled to 4° C. using 10 cycles of 10 sec ON and 10 sec OFF^o in a 1:1 volume ratio of Tris-buffered saline (pH 8.0) with added proteinase inhibitors (EDTA-free; Roche). Sample homogenization was confirmed by microscopic inspection. Lysates were then centrifuged for 15 min at 175^o000 g at 4° C. The supernatant was removed and total protein concentration in the soluble fraction was determined using a NanoDrop UV spectrometer (Thermo Fisher Scientific) before being transferred to standard chromatography vials with polypropylene inserts (Agilent Technologies) and kept at 4° C. on a Peltier cooler for analysis. Size exclusion chromatography-inductively coupled plasma-mass spectrometry was performed using an Agilent Technologies 1100 Series liquid chromatography system with a BioSEC 5 SEC column (5 μm particle size^o 300 Å pore size^o I.D. 4.6 mm^o Agilent Technologies) and 7700× Series ICP-MS as previously described (Hare et al.^o 2016b). A buffer of 200 mM NH4NO3 was used for all separations at a flow rate of 0.4 mL min^−1. A total of 50 μg of soluble protein was loaded onto the column by manually adjusting the injection volume for each sample. Mass-to-charge ratios (m/z) for phosphorus (31) and iron (56) were monitored in time resolved analysis mode. Plots of the mean (±standard deviation) of three independent biological replicates are shown. Integration of the three major peaks was performed using Prism (ver. 7 for Mac OS X, Graphpad).

C. elegans [1] = assay: Antibiotic tests: lifespan with ampicillin co-administration; assay type: in vivo, Caenorhabditis elegans
Protocol: To determine whether the increased lifespan seen with SIH treatment could be explained solely by an antibiotic effect of iron reduction, nematodes were treated with ampicillin, with and without SIH co-administration. Even in the presence of ampicillin, SIH increased median lifespan by 6 days, similar to its benefits in the absence of ampicillin (median increase of 7 days).

C. elegans [2] = assay: Movement; assay type: in vivo, Caenorhabditis elegans; details: for maximum velocity, 25% Percentile / maximum velocity, 75% Percentile / maximum velocity, Maximum / maximum velocity, Mean / maximum velocity, Median / maximum velocity, Minimum / mean velocity, 25% Percentile / mean velocity, 75% Percentile / mean velocity, Maximum / mean velocity, Mean / mean velocity, Median / mean velocity, Minimum / total distance traveled, 25% Percentile / total distance traveled, 75% Percentile / total distance traveled, Maximum / total distance traveled, Mean / total distance traveled, Median / total distance traveled, Minimum: 250 μM SIH or 200 μM Lip-1, 25° C; for total distance traveled, 25% Percentile / total distance traveled, 75% Percentile / total distance traveled, Maximum / total distance traveled, Mean / total distance traveled, Median / total distance traveled, Minimum: 30 second recording; for age-related decline in mean velocity: Kruskal-Wallis ANOVA H(7)=339.2, p<0.0001; for maximum velocity of aging animals: in vivo
Protocol: A developmentally synchronous population, derived from eggs laid over a 2-hour window, were cultured on NGA media at 25° C. for 48 h, and then as young adult worms were transferred onto three treatment plates for an additional 24 h. The treatment plates included NGM+0.5% (v/v) DMSO (vehicle control, Ctl), NGM+250 μM SIH, and NGM+200 μM Lip-1 (as described above).
Single worms were transferred to a 55 mm NGA assay plate devoid of a bacterial lawn, without a lid, and left to recover from the transfer for 2 minutes. Movement of the adults was then recorded using a stereomicroscope (Leica M80) with transmitted illumination from below. A 30 second video recording was captured using a 3 MP DFC290 HD digital camera (Leica Microsystems) at a rate of 30 frames per second. Pixel length was calibrated using a 25 μm grid slide (Microbrightfield, Inc). Recorded series were analysed using the wrMTrck plugin for ImageJ (www.phage.dk/plugins) and Fiji (a distribution of ImageJ).
The maximum velocity achieved was expressed as mm per second (as derived from the distance between displaced centroids per second). Additional metrics of movement were determined including mean velocity (mm s^−1) and (total) distance travelled (mm). These variables were collated in Prism (v7.0a GraphPad Software) and presented as a scatter plot with medians and interquartile range.

C. elegans [3] = assay: Temporal rescaling by temperature: lifespan at 20° C. and 25° C.; assay type: in vivo, Caenorhabditis elegans
Protocol: The effect of temperature is evaluated separately for control and SIH treated worms, population sizes for each replicate are shown in Table 20.
For each of two replicates and treatment factors, the AFT model with Weibull baseline hazard was fitted with temperature as the covariate. The residuals from this model were then subjected to the K-S test.
For both populations, being exposed to the higher temperature of 25° C. accelerates life as expected, by approximately 30% for control worms (Otemp=0.72 (95% Cl: 0.68; 0.77) and 20% for SIH worms (Otemp=0.81 (95% Cl: 0.78; 0.84).

C. elegans [4] = details: DEM at 10-100 μM, minor glutathione loss; cited from earlier work

## O=C(N/N=C/c1ccccc1O)c1ccncc1 [SIH, Salicylaldehyde isonicotinoyl hydrazone]
C. elegans iron-proteome
  Ferritin-bound iron, normalized peak area: approximately 50%
  iron associated with the LMW peak, normalized peak area: approximately 40%
  iron bound within HMW species: unaffected
C. elegans [1]; SIH and the antibiotic ampicillin co-administered
  lifespan extension on co-administration: additive effect on media lifespan extension
C. elegans [1]; SIH in the absence of ampicillin
  increase of median lifespan: 7 days
C. elegans [1]; SIH in the presence of ampicillin
  increase of median lifespan: 6 days
C. elegans [2]; Day 4
  maximum velocity, 25% Percentile: 0.3442 mm per second
  maximum velocity, 75% Percentile: 0.4755 mm per second
  maximum velocity, Maximum: 0.7127 mm per second
  maximum velocity, Mean: 0.392 mm per second
  maximum velocity, Median: 0.3733 mm per second
  maximum velocity, Minimum: 0.105 mm per second
  mean velocity, 25% Percentile: 0.1307 mm s-1
  mean velocity, 75% Percentile: 0.1824 mm s-1
  mean velocity, Maximum: 0.2629 mm s-1
  mean velocity, Mean: 0.1528 mm s-1
  mean velocity, Median: 0.1545 mm s-1
  mean velocity, Minimum: 0.02713 mm s-1
  total distance traveled, 25% Percentile: 3.977 mm
  total distance traveled, 75% Percentile: 5.513 mm
  total distance traveled, Maximum: 6.951 mm
  total distance traveled, Mean: 4.619 mm
  total distance traveled, Median: 4.766 mm
  total distance traveled, Minimum: 0.8402 mm
C. elegans [2]; Day 8
  maximum velocity, 25% Percentile: 0.174 mm per second
  maximum velocity, 75% Percentile: 0.3506 mm per second
  maximum velocity, Maximum: 0.6458 mm per second
  maximum velocity, Mean: 0.2847 mm per second
  maximum velocity, Median: 0.2513 mm per second
  maximum velocity, Minimum: 0.1028 mm per second
  mean velocity, 25% Percentile: 0.04028 mm s-1
  mean velocity, 75% Percentile: 0.1029 mm s-1
  mean velocity, Maximum: 0.1739 mm s-1
  mean velocity, Mean: 0.07262 mm s-1
  mean velocity, Median: 0.05813 mm s-1
  mean velocity, Minimum: 0.02239 mm s-1
  total distance traveled, 25% Percentile: 1.224 mm
  total distance traveled, 75% Percentile: 3.193 mm
  total distance traveled, Maximum: 5.235 mm
  total distance traveled, Mean: 2.192 mm
  total distance traveled, Median: 1.784 mm
  total distance traveled, Minimum: 0.6912 mm
C. elegans [2]
  age-related decline in mean velocity: attenuates the age-related decline in mean velocity
  maximum velocity of aging animals: markedly improved
C. elegans [3]
  lifespan extension at two temperatures: still extended lifespan by a similar dimension

## CCOC(=O)/C=C\C(=O)OCC [DEM, Diethyl maleate]
C. elegans [4]
  effect on lifespan as reported: increasing lifespan via hormesis

## Clc1cccc(CNC2=Nc3ccccc3NC23CCNCC3)c1 [Lip-1, N-[(3-chlorophenyl)methyl]-spiro[piperidine-4,2′(1′H)-quinoxalin]-3′-amine]
C. elegans [2]; Day 4
  maximum velocity, 25% Percentile: 0.2711 mm per second
  maximum velocity, 75% Percentile: 0.4861 mm per second
  maximum velocity, Maximum: 0.7204 mm per second
  maximum velocity, Mean: 0.37 mm per second
  maximum velocity, Median: 0.3762 mm per second
  maximum velocity, Minimum: 0.06351 mm per second
  mean velocity, 25% Percentile: 0.05892 mm s-1
  mean velocity, 75% Percentile: 0.1839 mm s-1
  mean velocity, Maximum: 0.2606 mm s-1
  mean velocity, Mean: 0.1244 mm s-1
  mean velocity, Median: 0.1349 mm s-1
  mean velocity, Minimum: 0.01219 mm s-1
  total distance traveled, 25% Percentile: 1.797 mm
  total distance traveled, 75% Percentile: 5.397 mm
  total distance traveled, Maximum: 7.817 mm
  total distance traveled, Mean: 3.685 mm
  total distance traveled, Median: 4.126 mm
  total distance traveled, Minimum: 0.07633 mm
C. elegans [2]; Day 8
  maximum velocity, 25% Percentile: 0.1478 mm per second
  maximum velocity, 75% Percentile: 0.2452 mm per second
  maximum velocity, Maximum: 0.5563 mm per second
  maximum velocity, Mean: 0.2084 mm per second
  maximum velocity, Median: 0.1922 mm per second
  maximum velocity, Minimum: 0.05622 mm per second
  mean velocity, 25% Percentile: 0.03386 mm s-1
  mean velocity, 75% Percentile: 0.06818 mm s-1
  mean velocity, Maximum: 0.1644 mm s-1
  mean velocity, Mean: 0.05407 mm s-1
  mean velocity, Median: 0.04763 mm s-1
  mean velocity, Minimum: 0.008319 mm s-1
  total distance traveled, 25% Percentile: 1.001 mm
  total distance traveled, 75% Percentile: 2.092 mm
  total distance traveled, Maximum: 4.926 mm
  total distance traveled, Mean: 1.627 mm
  total distance traveled, Median: 1.451 mm
  total distance traveled, Minimum: 0.2338 mm
C. elegans [2]
  age-related decline in mean velocity: attenuates the age-related decline in mean velocity
  maximum velocity of aging animals: markedly improved
